In US20240262795A1, “PYRAZINE COMPOUNDS AS INHIBITORS OF FLT3” (Biomea Fusion, Inc., priority 2021, published 2024):

Legend:
[1] = system: MOLM-13; assay: Proliferation inhibition, CellTiter-Glo, MOLM-13; type: cell-based, human; conditions: Homo sapiens, 96 h; MOLM-13 cells, IC50 (4 days), CellTiter-Glo; read-out: MOLM-13 IC50
Procedure, shortened: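 About 10,000 cells per well in RPMI-1640 with 10% FBS. Compounds added 2 h after seeding at eight concentrations in duplicate (0.2% DMSO as 100% proliferation), then incubated ~96 h at 37° C, 5% CO2. ATP measured by CellTiter-Glo luminescence; IC50 from four-parameter logistic fit.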

[2] = target: T1, WT FLT3 (Homo sapiens, UniProt P36888); assay: WT FLT3 Lance Ultra TR-FRET kinase assay; type: biochemical
T1 construct: purchased Invitrogen PR4666C
T1 sequence (P36888 564-993 limits assumed): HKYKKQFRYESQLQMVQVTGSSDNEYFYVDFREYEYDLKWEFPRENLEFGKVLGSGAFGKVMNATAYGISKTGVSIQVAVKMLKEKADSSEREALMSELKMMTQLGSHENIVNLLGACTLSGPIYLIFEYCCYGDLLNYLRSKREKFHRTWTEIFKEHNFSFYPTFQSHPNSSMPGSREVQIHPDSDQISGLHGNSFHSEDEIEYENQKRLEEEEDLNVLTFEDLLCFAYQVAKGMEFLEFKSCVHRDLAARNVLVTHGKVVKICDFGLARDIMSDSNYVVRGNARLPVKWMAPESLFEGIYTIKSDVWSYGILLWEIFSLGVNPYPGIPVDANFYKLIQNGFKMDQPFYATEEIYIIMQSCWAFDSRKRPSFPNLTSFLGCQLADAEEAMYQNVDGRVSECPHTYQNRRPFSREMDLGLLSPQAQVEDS
Procedure, shortened: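 Lance Ultra TR-FRET with 50 nM ULight-JAK-1 (Tyr1023) peptide, Eu-anti-phosphotyrosine (PT66) detection, in HEPES pH 7.5 buffer at 23° C, 30 min enzyme/compound preincubation. WT: 0.5 nM enzyme, 100 μM ATP, 30 min; ITD: 0.0625 nM, 50 μM ATP, 60 min. IC50 by four-parameter fit of 11-point 3× dilutions.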

Row | Structure (SMILES) | IC50 [1] | IC50 [2]
1 | Cc1nc(C(N)=O)c(Nc2cccc(CCNC(=O)[C@H](C)N(C)C(=O)/C=C/CN(C)C)c2)nc1N(C)C(C)C [Compound 232, (S, E)-3-((3-(2-(2-(4-(dimethylamino)-N-methylbut-2-enamido)propanamido)ethyl)phenyl)amino)-5-(isopropyl (methyl)amino)-6-methylpyrazine-2-carboxamide] | 1 to 10 nM | 0.501 to 1 nM
2 | Cc1nc(C(N)=O)c(Nc2cccc(CCNC(=O)CN(C)C(=O)/C=C/CN(C)C)c2)nc1N(C)C(C)C [Compound 250, (E)-3-((3-(2-(2-(4-(dimethylamino)-N-methylbut-2-enamido)acetamido)ethyl)phenyl)amino)-5-(isopropyl(methyl)amino)-6-methylpyrazine-2-carboxamide] | 1 to 10 nM | 0.201 to 0.5 nM
3 | CCc1nc(C(N)=O)c(Nc2ccnc(CCNC(=O)[C@H](C)N(C)C(=O)/C=C/CN(C)C)c2)nc1C1CC1 [Compound 310, (S,E)-5-cyclopropyl-3-((2-(2-(2-(4-(dimethylamino)-N-methylbut-2-enamido)propanamido)ethyl)pyridin-4-yl)amino)-6-ethylpyrazine-2-carboxamide] | 1 to 10 nM | 0.501 to 1 nM
4 | CCc1nc(Nc2cccc([C@@H](C)CNC(=O)CN(C)C(=O)/C=C/CN3CCC3)c2)c(C(N)=O)nc1CC [Compound 508, (R, E)-3-((3-(1-(2-(4-(azetidin-1-yl)-N-methylbut-2-enamido)acetamido)propan-2-yl)phenyl)amino)-5,6-diethylpyrazine-2-carboxamide] | > 500 nM | 0.501 to 1 nM
5 | CCc1nc(C(N)=O)c(Nc2cc(F)cc(CCNC(=O)CN(C)C(=O)/C=C/CN3CCC3)c2)nc1C1CC1 [Compound 516, (E)-3-((3-(2-(2-(4-(azetidin-1-yl)-N-methylbut-2-enamido)acetamido)ethyl)-5-fluorophenyl)amino)-5-cyclopropyl-6-ethylpyrazine-2-carboxamide] | 1 to 10 nM | 0.201 to 0.5 nM
6 | CCc1nc(C(N)=O)c(Nc2cccc(CCNC(=O)CN(C)C(=O)/C=C/CN3CCC3)c2)nc1N(C)CC [Compound 516A, (E)-3-((3-(2-(2-(4-(azetidin-1-yl)-N-methylbut-2-enamido)acetamido)ethyl)phenyl)amino)-6-ethyl-5-(ethyl(methyl)amino) pyrazine-2-carboxamide] | < 1 nM | 0.501 to 1 nM
7 | CCc1nc(C(N)=O)c(Nc2cccc([C@@H](C)CNC(=O)CN(C)C(=O)/C=C/CN3CCC3)c2)nc1N(C)CC [Compound 518, (R,E)-3-((3-(1-(2-(4-(azetidin-1-yl)-N-methylbut-2-enamido)acetamido)propan-2-yl)phenyl)amino)-6-ethyl-5-(ethyl(methyl)amino)pyrazine-2-carboxamide] | < 1 nM | 0.201 to 0.5 nM
8 | CCOc1nc(Nc2cccc(CCNC(=O)CN(C)C(=O)/C=C/CN3CCC3)c2)c(C(N)=O)nc1CC [Compound 602, (E)-3-((3-(2-(2-(4-(azetidin-1-yl)-N-methylbut-2-enamido)acetamido)ethyl)phenyl)amino)-5-ethoxy-6-ethylpyrazine-2-carboxamide] | 1 to 10 nM | 0.201 to 0.5 nM
9 | CCc1nc(C(N)=O)c(Nc2cccc(CCNC(=O)CN(C)C(=O)/C=C/CN3CCC3)c2)nc1OC(C)C [Compound 603, (E)-3-((3-(2-(2-(4-(azetidin-1-yl)-N-methylbut-2-enamido)acetamido)ethyl)phenyl)amino)-6-ethyl-5-isopropoxypyrazine-2-carboxamide] | 1 to 10 nM | 0.201 to 0.5 nM
10 | CCc1nc(C(N)=O)c(Nc2ccnc(CCNC(=O)[C@H](C)N(C)C(=O)/C=C/CN(C)C)c2)nc1N(C)C(C)C [Compound 605, (S, E)-3-((2-(2-(2-(4-(dimethylamino)-N-methylbut-2-enamido)propanamido)ethyl)pyridin-4-yl)amino)-6-ethyl-5-(isopropyl (methyl)amino) pyrazine-2-carboxamide] | < 1 nM | 0.201 to 0.5 nM
11 | CCc1nc(C(N)=O)c(Nc2ccc(N3CCC(N4CCN(C)CC4)CC3)c(OC)c2)nc1NC1CCOCC1 [Gilteritinib, gilteritinib, reference compound] | 1 to 10 nM | –

Further lines, results first:

Row | IC50 [1] | IC50 [2] | Structure (SMILES)
12 | < 1 nM | 0.101 to 0.2 nM | CCc1nc(C(N)=O)c(Nc2cccc(CCNC(=O)[C@H](C)N(C)C(=O)/C=C/CN(C)C)c2)nc1N(C)C(C)C [Compound 204, (S,E)-3-((3-(2-(2-(4-(dimethylamino)-N-methylbut-2-enamido)propanamido)ethyl)phenyl)amino)-6-ethyl-5-(isopropyl(methyl)amino)pyrazine-2-carboxamide]
13 | < 1 nM | 0.101 to 0.2 nM | CCc1nc(C(N)=O)c(Nc2cccc(CCNC(=O)[C@H](C)N(C)C(=O)/C=C/CN(C)C)c2)nc1NC(C)C [Compound 205, (S,E)-3-((3-(2-(2-(4-(dimethylamino)-N-methylbut-2-enamido)propanamido)ethyl)phenyl)amino)-6-ethyl-5-(isopropylamino)pyrazine-2-carboxamide]
14 | < 1 nM | – | CCc1nc(C(N)=O)c(Nc2cccc(CCNC(=O)CN(C)C(=O)/C=C/CN(C)C)c2)nc1C1CC1 [Compound 219, (E)-5-cyclopropyl-3-((3-(2-(2-(4-(dimethylamino)-N-methylbut-2-enamido)acetamido)ethyl)phenyl)amino)-6-ethylpyrazine-2-carboxamide]
15 | < 1 nM | 0.201 to 0.5 nM | CCc1nc(C(N)=O)c(Nc2cccc(CCNC(=O)CN(C)C(=O)/C=C/CN(C)C)c2)nc1N(C)CC [Compound 252, (E)-3-((3-(2-(2-(4-(dimethylamino)-N-methylbut-2-enamido)acetamido)ethyl)phenyl)amino)-6-ethyl-5-(ethyl (methyl)amino) pyrazine-2-carboxamide]
16 | < 1 nM | 0.201 to 0.5 nM | CCc1nc(C(N)=O)c(Nc2cccc(CCNC(=O)[C@H](C)N(C)C(=O)/C=C/CNC)c2)nc1N(C)C(C)C [Compound 307, (S,E)-6-ethyl-5-(isopropyl(methyl)amino)-3-((3-(2-(2-(N-methyl-4-(methylamino)but-2-enamido)propanamido)ethyl)phenyl)amino)pyrazine-2-carboxamide]
17 | < 1 nM | – | CCc1nc(C(N)=O)c(Nc2cccc([C@@H](C)CNC(=O)CN(C)C(=O)/C=C/CN(C)C)c2)nc1C1CC1 [Compound 504, (R,E)-5-cyclopropyl-3-((3-(1-(2-(4-(dimethylamino)-N-methylbut-2-enamido)acetamido)propan-2-yl)phenyl)amino)-6-ethylpyrazine-2-carboxamide]
18 | < 1 nM | 0.101 to 0.2 nM | CCc1nc(C(N)=O)c(Nc2cccc([C@@H](C)CNC(=O)CN(C)C(=O)/C=C/CN3CCC3)c2)nc1C1CC1 [Compound 506, (R,E)-3-((3-(1-(2-(4-(azetidin-1-yl)-N-methylbut-2-enamido)acetamido)propan-2-yl)phenyl)amino)-5-cyclopropyl-6-ethylpyrazine-2-carboxamide]
19 | < 1 nM | 0.201 to 0.5 nM | CCCc1nc(Nc2cccc([C@@H](C)CNC(=O)CN(C)C(=O)/C=C/CN3CCC3)c2)c(C(N)=O)nc1CC [Compound 507, (R,E)-3-((3-(1-(2-(4-(azetidin-1-yl)-N-methylbut-2-enamido)acetamido)propan-2-yl)phenyl)amino)-6-ethyl-5-propylpyrazine-2-carboxamide]
